The record followed here is publication PMC10907465 (Inflammopharmacology, 2023).

Common to all, as to assay type: in vivo, rat
One test has as its system P38.MAPK14. The test is described as follows: LPS-induced ALI in rats: real-time PCR of P38 MAPK gene in lung. Conditions: lung tissue. On the procedure: (§1) Thirty-five free pathogenic Sprague–Dawley male albino rats (100–120 g) were obtained from the Egyptian Drug Authority (EDA) animal house. Randomly, the animals were divided into seven groups, (each 5 rats) as follows: Group I: normal control group, Group II: positive control group on the 7th day only received LPS (Lipopolysaccharides) at a dose of 10 mg/kg bw. i.p. suspended in sterile saline solution 0.9% (Ijinu et al. [2022]), Group III dexamethasone positive control (5 mg/kg i.p.) (Murillo-Cuesta et al. [2023]) for 7 days followed by LPS single inflammatory dose model (10 mg/kg b. w i.p.). On the 7th day, 1 h after the last dexamethasone dose. […]
(§2) Primers were utilized in a 25- µl reaction containing 12.5 µl of the 2 × QuantiTect SYBR Green PCR Master Mix (StrateGene® MX3005P, Qiagen, Germany), 0.25 µl of Revert Aid reverse transcriptase (200 U/µL) (Thermo Fisher, Germany), 0.5 µl of each primer of 20 pmol concentration, 8.25 µl of water, and 3 µl of RNA template. […] Amplification curves and Ct values were determined by the Strata gene MX3005P software, version 3 (Agilent, California, USA). […]
A general note: In qPCR the cycle at which signal appears reflects the starting amount.

The next test relates to SOD. The test is described as follows: LPS-induced ALI in rats: pulmonary SOD. Conditions: lung tissue. The procedure: (§3) Thirty-five free pathogenic Sprague–Dawley male albino rats (100–120 g) were obtained from the Egyptian Drug Authority (EDA) animal house. Randomly, the animals were divided into seven groups, (each 5 rats) as follows: Group I: normal control group, Group II: positive control group on the 7th day only received LPS (Lipopolysaccharides) at a dose of 10 mg/kg bw. i.p. suspended in sterile saline solution 0.9% (Ijinu et al. [2022]), Group III dexamethasone positive control (5 mg/kg i.p.) (Murillo-Cuesta et al. [2023]) for 7 days followed by LPS single inflammatory dose model (10 mg/kg b. w i.p.). On the 7th day, 1 h after the last dexamethasone dose. […] All animals were anesthetized to obtain blood in heparinized capillary tubes for pro-inflammatory cytokines (TNF-α, IL-1, IL-6, and MPO) ELISA examination in addition to lung tissues for determination of antioxidant enzymes (SOD, Catalase, GSH and MDA), real-time PCR (p38.MAPK14 and CY450P2E1), western blot (NF-κB p65), histological lung tissue scoring and immunohistochemistry examination (TGF-β1).

The next test has as its system IL-6. The test is described as follows: LPS-induced ALI in rats: IL-6 ELISA. The procedure: as §3
(§4) Rat TNF-α (Catalog No: MBS2507393 96 T/48 T/24 T), IL-6 (Catalog No: MBS355410), IL-1β (Catalog no. MBS825017), MPO (Catalog No. MBS2019590) ELISA kits were obtained from MyBiosource, San Diego, USA.
A general note: An ELISA detects its analyte on a solid surface through an enzyme-linked reagent.

The test system of another test is Catalase. The test is described as follows: LPS-induced ALI in rats: pulmonary catalase. Conditions: lung tissue. On the procedure: as §3
Another test concerns TGF-β1. Conditions: rats. On the procedure:
as §1
Lung tissues were collected and fixed in 10% neutral buffered formaldehyde for 24 h to stabilize and fix tissue proteins. […] The same position of the lungs in five mice was observed through a microscope, and the histological lesion of the lung was evaluated through the incidence of congestion, inflammation, and hemorrhage, severity scoring of neutrophil infiltrates, and proportion of airspace areas. […]

A further test concerns TNF-α. Particulars: ELISA, rats. On the procedure:
as §3, §4

Another test deals with MPO. Conditions: ELISA, rats. The procedure: as §3, §4
The test system of another test is IL-1β. In words: LPS-induced ALI in rats: IL-1β ELISA. On the procedure:
as §3, §4

A further test concerns NF-κB p65. Conditions: western blot, lung, relative band intensity (ratio of AU to internal control), rats. The procedure: as §1
Samples were separated on a polyacrylamide gel; the procedure was abbreviated as SDS-PAGE, or Sodium Dodecyl Sulfate Polyacrylamide Gel Electrophoresis, a standard technique for separating proteins according to their molecular weight. […] Imaging and data analysis quantitation: The chemiluminescent substrate (Clarity TM Western ECL substrate, Bio-Rad cat# 170-5060) was applied to the blot according to the manufacturer’s recommendation.
Background: Immunoblotting shows a protein as a band on a membrane.

The test system of the next test is MDA. In words: LPS-induced ALI in rats: pulmonary MDA. Particulars: lung tissue. The procedure: as §3
A further test has as its system lung tissues. The test is described as follows: LPS-induced ALI in rats: H&E histopathology and histological scoring of pulmonary inflammation. Conditions: for Proportion of airspace area: airspace area / total area of one view, 400×; for Incidence of congestion / Incidence of hemorrhage / Severity of neutrophil infiltration: lung H&E. On the procedure: as §3
Lung tissues were collected and fixed in 10% neutral buffered formaldehyde for 24 h to stabilize and fix tissue proteins. Dehydration, clearing, and paraffin infiltration and embedding were performed, and then wax blocks were sectioned by microtome into 5 µ sections and stained with Hematoxylin and Eosin Stain. Hematoxylin staining was performed according Ehrlich's Hematoxylin (Ehrlich [1886]) and eosin staining was done according to Avwioro ([2011]). Anti-Transforming Growth Factor-β (TGF-β) antibody immunohistochemistry stain (Arigo Biolaboratories, ARG 56429) was also performed, and Immuno-histochemical staining was performed according to Bajracharya et al. ([2017]). The same position of the lungs in five […] was observed through a microscope, and the histological lesion of the lung was evaluated through the incidence of congestion, inflammation, and hemorrhage, severity scoring of neutrophil infiltrates, and proportion of airspace areas. The level of severity was judged from – to +++, representing none to severe. The airspace proportion is the ratio of the airspace area and the total area of one view under 400 × magnifications (Wang et al. [2018]). According to Xue et al. ([2011]) & Ai-Li Huang et al. ([2014]): the semi-quantitative criterion for TGF-β1 staining intensity was estimated using a four-tiered scoring system: negative (−), no staining at all; weak (+), weak staining regardless of positive cell percentages or moderate staining of ≤ 30% of cells; moderate (++), moderate staining of > 30% of cells or strong staining of ≤ 50% of cells; strong (+++), strong staining of > 50% of cells. Low expression of TGF-β1 was defined as (-) or ( +), and High expression was defined as (++) or (+++).

A further test has as its system CY450P2E1. The test is described as follows: LPS-induced ALI in rats: real-time PCR of CY450P2E1 gene in lung. Particulars: lung tissue. The procedure: as §1, §2
A further test has as its system GSH. In words: LPS-induced ALI in rats: pulmonary GSH. Conditions: lung tissue. The procedure:
as §3

Where [1] appears, read: dexamethasone 5 mg/kg i.p. 7 days + LPS 10 mg/kg i.p.

Read-outs that look alike come from different tables or passages of the source.

As for `C[C@@H]1C[C@H]2[C@@H]3CCC4=CC(=O)C=C[C@]4(C)[C@@]3(F)[C@@H](O)C[C@]2(C)[C@@]1(O)C(=O)CO` [Dexamethasone, dexamethasone], the “P38 MAPK Fold change” value in the test on P38.MAPK14 (setting [1]) was 3.585 ± 0.2314^***b Fold change. Further, the SOD in the test with SOD (setting [1]) was 0.8047 ± 0.041^*b. Besides, the IL-6 in the test on IL-6 (setting [1]) was 58.87 ± 1.38^***b. Moreover, the Catalase in the test on Catalase (setting [1]) was 0.098 ± 0.006^*b. The “TGF-β1 immunohistochemical expression in lung” value in the test with TGF-β1 (setting [1]) is listed as “+ +”. Further, the TNF-α in the test with TNF-α (setting [1]) was 91.27 ± 1.940^***b. For the same molecule, in the test with MPO (setting [1]), the MPO was 45.50 ± 2.926^***b. For the same molecule, in the test on IL-1β (setting [1]), the IL-β1 is given as 48.77 ± 1.995^***b. Also, the Nf-ĸB with NF-κB p65 (setting [1]) stood at 3.907 ± 0.048. In addition, the MDA with MDA (setting [1]) was 20.69 ± 2.49^***b. In the test with lung tissues (setting [1]), the “Proportion of airspace area” value is 4.89%; the “H&E histological examination of lung tissue (finding in words)” value is recorded as “collapsed alveoli in some areas, while other areas showed emphysema”; the Incidence of congestion is reported as 4/8; the Incidence of hemorrhage was 1/8. The “Severity of neutrophil infiltration” value in the test with lung tissues (setting [1]) is “++”. Besides, in the test on CY450P2E1 (setting [1]), the “CY450P2E1 Fold change” value is on record as 5.345 ± 0.3346^***b Fold change. In addition, the GSH with GSH (setting [1]) was 1.174 ± 0.1565^**b.
In the case of Lipopolysaccharide [LPS], the “P38 MAPK Fold change” value in the test with P38.MAPK14 (LPS 10 mg/kg i.p. only) is 9.682 ± 0.1741^***a Fold change. Also, in the test with SOD (LPS 10 mg/kg i.p. only), the SOD is 0.4713 ± 0.041^*a. Also, the IL-6 in the test with IL-6 (LPS 10 mg/kg i.p. only) is 126.1 ± 3.75^***a. In addition, the Catalase in the test on Catalase (LPS 10 mg/kg i.p. only) was 0.2153 ± 0.001^*a. Besides, the “TGF-β1 immunohistochemical expression in lung” value in the test on TGF-β1 (LPS 10 mg/kg i.p. only) is reported as “+ +”. In the test on TNF-α (LPS 10 mg/kg i.p. only), the TNF-α is 157.0 ± 4.917^***a. The MPO in the test on MPO (LPS 10 mg/kg i.p. only) is listed as 102.4 ± 3.496^***a. The IL-β1 with IL-1β (LPS 10 mg/kg i.p. only) is 112.2 ± 3.143^***a. Besides, the Nf-ĸB with NF-κB p65 (LPS 10 mg/kg i.p. only) is recorded as 3.973 ± 0.014^***a. For the same molecule, in the test with MDA (LPS 10 mg/kg i.p. only), the MDA is given as 42.15 ± 0.800^***a. In the test on lung tissues (LPS 10 mg/kg i.p. only), the “H&E histological examination of lung tissue (finding in words)” value is on record as “collapsed alveoli in some areas, while other areas showed emphysema”; the “Proportion of airspace area” value turned out to be 2.66%; the Incidence of congestion is listed as 5/8; the Incidence of hemorrhage is 2/8. Moreover, the “Severity of neutrophil infiltration” value in the test on lung tissues (LPS 10 mg/kg i.p. only) is “++++”. Besides, the “CY450P2E1 Fold change” value in the test on CY450P2E1 (LPS 10 mg/kg i.p. only) is given as 12.68 ± 0.2038^***a Fold change. In the test on GSH (LPS 10 mg/kg i.p. only), the GSH is given as 0.4737 ± 0.038^*a.
